Assays:
[1] = test system: normal human lung fibroblasts (NHLF), TGFβ-induced alpha-smooth muscle actin; test: Inhibition of the myofibroblast transition of normal human lung fibroblasts (NHLF); type: cell-based; conditions: Fibroblast; 1 ng/mL human TGFβ, 24 h, alpha-smooth muscle actin western blot; read-out: inhibition of NHLF myofibroblast transition pIC50 (-log IC50) (converted)
Experimental: Method for Determination of the Inhibition of the Myofibroblast Transition of Normal Human Lung Fibroblasts (NHLF)
200,000 NHLF-cells were seeded into each well of six-well cell culture plates in full-medium and starved for 24 h after initial 24 h incubation at 37° C., 5% CO2 and 95% humidity. Before inducing fibroblast-to-myofibroblast conversion by adding 1 ng/mL human TGFβ serial dilution of test compound was administered. After 24 h the cells were collected and processed to lysates as described subsequently.
Cells were washed, twice in PBS, trypsinated and centrifuged at 500×g for 10 min. Afterwards the cell pellet was resuspended in 150 microL freshly prepared lysis buffer (50 mM Hepes, pH 7.5, 150 mM NaCl, 1.5 mM MgCl2, 10% […], 1% Triton X-100, 0.5% Desoxycholat, 0.2% SDS, 1 mM EGTA (ethylene glycol tetraacetic acid), 100 mM NaF, 10 mM Na4P2O7, 1 mM Na-Vanadat, 1 mM PMSF and 50 U/mL Benzonase (Merck KGaA, Darmstadt, Germany), one Phosphatase Inhibitor Cocktail tablet (Complete Mini from Roche Diagnostics, Mannheim, Germany) per 10 ml buffer and stored at −80° C. for further use. Protein concentration was determined following instructions of the BCA Protein Assay (Pierce Biotechnology, Rockford, Ill., USA). Photometric measurements were performed with the microplate reader Sunrise from Tecan Group Ltd., (Männedorf, Switzerland). 6 μg of protein of the different samples were separated on a 10% SDS (Sodium Dodecyl Sulfate) discontinuous polyacrylamide gel electrophoresis. Thereafter, proteins were blotted from the gel onto a nitrocellulose transfer membrane for 2 h at 400 mA in a wet-blot-chamber. Thereafter the membrane was blocked in 5% milkpowder in PBS (Phosphate Buffered Saline) containing 0.1% Tween 20 at 4° C. overnight. Subsequently the membrane was hybridized for 4 h with the primary anti-Alpha-smooth muscle actin antibody (1:2,000 in 5% milkpowder in PBS), washed three times in PBS containing 0.1% Tween 20. This was followed by incubation with the secondary horseradish-coupled goat anti-mouse IgG detection-antibody (1:10,000 in 5% milkpowder in PBS) for 2 h. After final washing with PBS containing 0.1% Tween 20 (three times for 10 min each) the blot was developed by using a chemiluminescence detection system according to the manufacturer instructions and a luminescent image analyzer (Fuji LAS 1000 Pro).
The numbers of the compounds correspond to the examples numbers.

[2] = test system: plasma TNFα after i.v. LPS; test: In vivo assay: LPS-induced TNFα release in mice; parameters: species or system C57BL/6 mice; conditions: Mus musculus; p.o. 1 h prior to i.v. LPS 100 μg/kg; plasma TNFα 1 h after LPS
Experimental: In Vivo Assay: LPS-Induced TNFα Release in Mice
Intravenously administration of lipopolysaccharide (LPS) causes a systemic inflammation characterised by release of pro-inflammatory cytokines, e.g. tumor necrosis factor alpha (TNFα). Selective EP2 agonists are administered per oral 1 h prior intravenously LPS challenge in mice. The anti-inflammatory activity of the selective EP2 agonists is assessed based on TNFα levels in blood plasma 1 h after LPS challenge.
Female C57BL/6 mice weighing 20-25 g were used. Mice were delivered 1 week prior to the experiments and had free access to water and food.
The test compound was mixed with 1.33% polyethylenglycol 400 (PEG400, Merck, Darmstadt, Germany) and subsequently suspended in 2% methocel solution (hypromellose, Sigma, Steinheim, Germany) using the Covaris S2X System (K Biosciences Ltd.; Hoddesdon; United Kingdom). The aimed doses were prepared by dilution series from the stock suspension, which was prepared for the administration of the highest dose in each experiment.
The administered volume of the compound suspension is 10 mL/kg. On day of the experiment the mouse body weights were documented to calculate the volume to be administered. LPS challenged control animals received drug-free vehicle solution as placebo. Test compounds and vehicle were administered by oral gavage 1 h prior to LPS challenge.
LPS (from Escherichia coli 055:B5, Sigma, Steinheim, Germany) was solubilised in 0.9% sterile NaCl solution (B. Braun Melsungen AG, Melsungen, Germany) containing 0.1% hydroxylamine (Sigma, Steinheim, Germany). LPS is intravenously (i.v.) injected at a dose of 100 μg/kg (5 mL/kg b.w.) 1 h after compound or vehicle administration.
One hour after LPS-challenge, the animals were sacrificed by inhalative isoflurane anaesthesia and heparinised blood was obtained by retroorbital bleeding. Blood was centrifuged (21,000×g, 4° C., 10 min), and plasma samples were kept frozen at −20° C. until determination of TNFα levels by ELISA. TNFα was measured with a commercially available ELISA-Kit (Quantikine® Immunoassay Mouse TNFα, R&D Systems, Minneapolis, USA).
The compound effect on TNFα release was calculated individually in percent (%) for each compound treated animal in relation to the mean TNFα level of the vehicle treated LPS-challenged control group: % effect=(Y−K)/K*100 • with defining: • Y=plasma TNFα concentration of the compound treated animal • K=mean plasma TNFα concentration of the vehicle treated group
Statistical analysis was performed on the primary TNFα concentrations by One-Way ANOVA and Dunnett's Multiple Comparison test vs. vehicle-treated control group.

O=C(O)/C=C/c1ccc(F)c(NC(=O)c2cc(-c3ccccc3)cc3ccccc23)c1 [Example 2, (2E)-3-(4-fluoro-3-{[(3-phenylnaphthalen-1-yl)carbonyl]amino}phenyl)prop-2-enoic acid]
IC50 [1]: 0.316 to 3.16 nM
ED50 [2]: 0.1 to 3 mg/kg

O=C(O)/C=C/c1ccc(Cl)c(NC(=O)c2cc(-c3ccccc3)cc3ccccc23)c1 [Example 3, (2E)-3-(4-chloro-3-{[(3-phenylnaphthalen-1-yl)carbonyl]amino}phenyl)prop-2-enoic acid]
ED50 [2]: 0.1 to 3 mg/kg

O=C(O)/C=C/c1cccc(NC(=O)c2cc(-c3ccccc3)cc3ccccc23)c1 [Example 1, (2E)-3-(3-{[(3-phenylnaphthalen-1-yl)carbonyl]amino}phenyl)prop-2-enoic acid]
IC50 [1]: 0.316 to 3.16 nM
ED50 [2]: 0.1 to 3 mg/kg

O=C(O)/C=C/c1ccc(F)c(NC(=O)c2cc(-c3cccc(F)c3)cc3ccccc23)c1 [Example 10, (2E)-3-{3-[({3-[3-fluorophenyl]naphthalen-1-yl}carbonyl)amino]-4fluorophenyl}prop-2-enoic acid]
IC50 [1]: 0.316 to 3.16 nM
ED50 [2]: 0.1 to 3 mg/kg

O=C(O)/C=C/c1ccc(F)c(NC(=O)c2cc(-c3ccccc3F)cc3ccccc23)c1 [Example 9, (2E)-3-{3-[({3-[2-fluorophenyl]naphthalen-1-yl}carbonyl)amino]-4fluorophenyl}prop-2-enoic acid]
IC50 [1]: 0.316 to 3.16 nM
ED50 [2]: 0.1 to 3 mg/kg
